US10858335B2 (Rigel Pharmaceuticals, Inc., priority 2014, dated 2020)

System: GDF8 signaling (p-SMAD-3 (Ser423/425))
Test: AlphaScreen SureFire SMAD3 (p-Ser423/425) assay, GDF8-stimulated cells (GDF pSMAD)
Format: cell-based
Details: MPC11; GDF8-stimulated; p-SMAD3 AlphaScreen; read-out: GDF pSMAD (MPC11) (inhibition of GDF8 signaling)
Source text: Biological Example 1: AlphaScreen® SureFire® SMAD3 (p-Ser423/425) Assay
The p-SMAD-3 (Ser423/425) SureFire® assay has been designed to measure the phosphorylation of endogenous cellular p-SMAD-3 (Ser423/425) in cell lysates and is a system for the screening of both modulators of receptor activation (e.g. agonists and antagonists) as well as agents acting intracellularly, such as small molecule inhibitors of upstream events. The assay will measure p-SMAD-3 (Ser423/425) activation by either cloned or endogenous receptors, and can be applied to primary cells.
P-SMAD-3 (Ser423/425) SureFire® Assay Protocols
Step A: Preparation of Buffers
1× Lysis buffer: 1 ml of 5× Lysis buffer was diluted with 4 ml of sterile water. After dilution, excess 1× Lysis buffer can be frozen and thawed up to 5 times without loss in activity.
Activation buffer: The buffer was warmed slowly to 37° C. and gently mixed to re-suspend. Activation buffer can be stored at room temperature with no loss in activity.
Reaction buffer: The buffer was kept at 4° C. while in use.
AlphaScreen® Protein A IgG Kit: The kit was stored at 4° C. in the dark.
Reaction buffer+Activation buffer+AlphaScreen® Acceptor beads: Reaction buffer (40 parts), Activation Buffer (10 parts) and Acceptor beads (1 part) were mixed and the mixture was stored at room temperature and used the same day. Mixture was added to 384-well plates; excess mixture was discarded.
Dilution buffer+AlphaScreen® Donor beads: Dilution buffer (20 parts) and Donor beads (1 part) were mixed and the mixture was stored at room temperature and used the same day. Excess mixture was discarded.
Assay control samples: After reconstitution in 250 μl of water, lysates were at −20° C. in single use aliquots.
Step B: Preparation of Samples and Cells
96-well Assay Protocol for 293FT and RMS13 adherent cells can be carried out manually or in high throughput with liquid handling robots.
The cells (80 μL of cells for 96 well plates) were plated in collagen coated tissue culture plates in RPMI or FreeStyle medium (Invitrogen) and incubated overnight. For manual analysis, 6 plates for GDF8, 6 plates for TGFβ, and optionally 6 plates for AlkSca(ALK5 constitutively active) were used.
The compound dilution plates were prepared as follows: 12 μL of DMSO was transferred into first column of 96-well plate, and 16 μL of DMSO was transferred into columns 2-12 of the 96-well plate. 12 μL of compound solution was transferred into first column of the DMSO-containing 96-well plate. Three-fold dilution was performed up to column 10 of the DMSO-containing 96-well plate.
Step C: Treatment and Analysis
The plate containing cells were treated with compounds for about 10 minutes, and then ligand was added. GDF8 or TGFb was added to plates to stimulate. 293FL cells were stimulated for 90 minutes at 37° C.; and RMS13 cells were stimulated for 60 minutes at 37° C. The medium was then removed from the cells, and 1× Lysis Buffer (about 25 μL) was added and the plate was gently agitated on plate shaker for 5-10 minutes.
The lysate (5 μL) was then placed into 384-well shallow plates avoiding the generation of bubbles. To this, the Reaction Buffer+Activation Buffer+AlphaScreen® Acceptor beads mixture (5 μL) was added. The plate was sealed with adhesive cover and shielded from light (e.g., with metal foil), and agitated gently on plate shaker for 2 hours at room temperature.
Dilution buffer+AlphaScreen® Donor beads (2 μL) was then added, and the plate was intubated on the plate shaker for an additional 1½ hours. After completion, the plate was read on Synergy-4 or Enspire plate reader, using AlphaScreen® pSMAD3® settings.
Representative results for inhibition of GDF8 signaling are shown in Table 2(data=GDF pSMAD (MPC11) (μM)): […]

Row | Structure (SMILES) | IC50 [µM]
1 | Nc1ncnc2ccc(-c3cccnc3-c3cc(Cl)ccc3F)cc12 [compound 818, 6-(2-(5-Chloro-2-fluorophenyl)pyridin-3-yl)quinazolin-4-amine] | 0.0774

Same assay, conditions: Mus musculus, MPC-11, GDF8-stimulated pSMAD3, MPC11; tested as the salt form given; read-out: GDF pSMAD (MPC11) (μM), inhibition of GDF8 signaling

Row | Structure (SMILES) | IC50 [µM]
2 | Cc1ccc(Cl)cc1-c1ncccc1-c1ccc2ncsc2c1 [compound 1057] | 0.371
3 | Cc1cc(-c2ncccc2-c2ccc3ncnc(N)c3c2)c(Cl)cc1F [compound 1012, 6-(2-(2-chloro-4-fluoro-5-methylphenyl)pyridin-3-yl)quinazolin-4-amine] | 0.728

Same assay, conditions: Mus musculus, MPC-11, MPC11; GDF8-stimulated; p-SMAD3 AlphaScreen; read-out: GDF pSMAD (MPC11) (inhibition of GDF8 signaling)

Row | Structure (SMILES) | IC50 [µM]
4 | Fc1cc(F)c(-c2ncccc2-c2ccn3ncnc3c2)cc1F [compound 874, 7-(2-(2,4,5-Trifluorophenyl)pyridin-3-yl)-[1,2,4]triazolo[1,5-a]pyridine] | 6.47
5 | Cc1cc(-c2ncccc2-c2ccc3ncc(C(=O)NCCN4CCOCC4)n3c2)ccc1F [compound 585, 6-(2-(4-Fluoro-3-methylphenyl)pyridin-3-yl)-N-(2-morpholinoethyl)imidazo[1,2-a]pyridine-3-carboxamide] | 0.51
6 | CCn1cnc2ccc(-c3cccnc3-c3ccc(F)c(C)c3)cc21 [Compound 46, 1-Ethyl-6-(2-(4-fluoro-3-methylphenyl)pyridin-3-yl)-1H-benzo[d]imidazole] | 1.73
7 | Cc1cc(-c2ncccc2-c2ccc3ncnc(Nc4ccc(C(N)=O)cc4)c3c2)ccc1F [compound 406, 4-((6-(2-(4-Fluoro-3-methylphenyl)pyridin-3-yl)quinazolin-4-yl)amino)benzamide] | 2.79
8 | Fc1cc(F)c(-c2ncccc2-c2ccc3ncsc3c2)cc1Cl [compound 718, 6-(2-(5-Chloro-2,4-difluorophenyl)pyridin-3-yl)benzo[d]thiazole] | 0.314
9 | Nc1ccc(-c2ccc3ncsc3c2)c(-c2cccc(C3CC3)c2)n1 [Compound 28, 5-(Benzo[d]thiazol-6-yl)-6-(3-cyclopropylphenyl)pyridin-2-amine] | 1.75
10 | Cc1ccc(F)c(-c2ncccc2-c2ccc3ncsc3c2)c1 [compound 667, 6-(2-(2-Fluoro-5-methylphenyl)pyridin-3-yl)benzo[d]thiazole] | 0.226
11 | Nc1ncnc2ccc(-c3cccnc3-c3cccc(OCC4CC4)c3)cc12 [compound 483, 6-(2-(3-(Cyclopropylmethoxy)phenyl)pyridin-3-yl)quinazolin-4-amine] | 0.82
12 | N#Cc1cnc2ccc(-c3cccnc3-c3ccc(F)c(Cl)c3)nn12 [compound 948, 6-(2-(3-Chloro-4-fluorophenyl)pyridin-3-yl)imidazo[1,2-b]pyridazine-3-carbonitrile] | 0.951
13 | Cc1cc(-c2ncccc2-c2ccc3ncnc(OC4CCN(c5ccncc5)CC4)c3c2)ccc1F [compound 447, 6-(2-(4-Fluoro-3-methylphenyl)pyridin-3-yl)-4-((1-(pyridin-4-yl)piperidin-4-yl)oxy)quinazoline] | 0.753
14 | Cc1cc(-c2ncccc2-c2ccc3c(cnn3C(=O)NCCN)c2)ccc1F [compound 639, N-(2-Aminoethyl)-5-(2-(4-fluoro-3-methylphenyl)pyridin-3-yl)-1H-indazole-1-carboxamide] | 10.6
15 | O=c1cnc2ccc(-c3cccnc3-c3ccc(F)c(Cl)c3)cc2[nH]1 [compound 890, 7-(2-(3-Chloro-4-fluorophenyl)pyridin-3-yl)quinoxalin-2(1H)-one] | 1.3
16 | Cc1cccc(-c2ncccc2-c2ccc3ncoc3c2)c1 [Compound 181, 6-(2-m-Tolylpyridin-3-yl)benzo[d]oxazole] | 0.539
17 | Fc1ccc(-c2ncccc2-c2cnc3cn[nH]c3c2)cc1F [Compound 137, 6-(2-(3,4-Difluorophenyl)pyridin-3-yl)-1H-pyrazolo[4,3-b]pyridine] | 22.8
18 | Oc1cccc(-c2ncccc2-c2cnc3[nH]ncc3c2)c1 [Compound 156, 3-(3-(1H-Pyrazolo[3,4-b]pyridin-5-yl)pyridin-2-yl)phenol] | 1.79
19 | [2H]C([2H])([2H])c1cccc(-c2ncccc2-c2ccc3ncsc3c2)c1 [compound 603, 6-(2-(3-(Methyl-d3)phenyl)pyridin-3-yl)benzo[d]thiazole] | 0.109

Row | Structure (SMILES) | IC50 [µM]
20 | c1cc(-c2ncccc2-c2ccc3ncc(CN4CCOCC4)n3c2)cc(C2CC2)c1 [compound 571, 4-((6-(2-(3-Cyclopropylphenyl)pyridin-3-yl)imidazo[1,2-a]pyridin-3-yl)methyl)morpholine] | 7.31
21 | Cc1cccc(-c2ncccc2-c2ccc3ncn(C)c3c2)c1 [Compound 186, 1-methyl-6-(2-m-tolylpyridin-3-yl)-1H-benzo[d]imidazole] | 0.3
22 | Cc1ccc(F)c(-c2ncccc2-c2cnc3[nH]ncc3c2)c1 [Compound 153, 5-(2-(2-Fluoro-5-methylphenyl)pyridin-3-yl)-1H-pyrazolo[3,4-b]pyridine] | 0.45
23 | Nc1ncnc2ccc(-c3cccnc3-c3ccc(F)c(F)c3)cc12 [compound 453, 6-(2-(3,4-Difluorophenyl)pyridin-3-yl)quinazolin-4-amine] | 0.816
24 | Cc1cc(-c2ncc(NCc3cccnc3)cc2-c2ccc3nccnc3c2)ccc1F [compound 244, 6-(4-Fluoro-3-methylphenyl)-N-(pyridin-3-ylmethyl)-5-(quinoxalin-6-yl)pyridin-3-amine] | 0.798
25 | Nc1nc2ccc(-c3cccnc3-c3ccc(F)c(Cl)c3)cn2n1 [compound 291, 6-(2-(3-Chloro-4-fluorophenyl)pyridin-3-yl)-[1,2,4]triazolo[1,5-a]pyridin-2-amine] | 1.23
26 | CC(=O)c1cnc2ccc(-c3cccnc3-c3cccc(Cl)c3)cn12 [compound 763, 1-(6-(2-(3-Chlorophenyl)pyridin-3-yl)imidazo[1,2-a]pyridin-3-yl)ethan-1-one] | 0.52
27 | Fc1ccc(-c2ncccc2-c2ccc3ncnn3c2)cc1Cl [compound 692, 6-(2-(3-Chloro-4-fluorophenyl)pyridin-3-yl)-[1,2,4]triazolo[1,5-a]pyridine] | 0.436
28 | N#Cc1cnc2ccc(-c3cccnc3-c3ccc(F)c(Cl)c3)cn12 [compound 689, 6-(2-(3-Chloro-4-fluorophenyl)pyridin-3-yl)imidazo[1,2-a]pyridine-3-carbonitrile] | 0.516
29 | Fc1cc(F)c(-c2ncccc2-c2ccn3nccc3n2)cc1F [compound 915, 5-(2-(2,4,5-Trifluorophenyl)pyridin-3-yl)pyrazolo[1,5-a]pyrimidine] | 0.558
30 | Cc1cc(-c2ncc(Cl)cc2-c2ccc3[nH]ncc3c2)ccc1F [Compound 9, 5-(5-Chloro-2-(4-fluoro-3-methylphenyl)pyridin-3-yl)-1H-indazole] | 5.13
31 | Cc1cc(-c2ncccc2-c2cc3cn[nH]c3cc2C)ccc1F [Compound 173, 5-(2-(4-Fluoro-3-methylphenyl)pyridin-3-yl)-6-methyl-1H-indazole] | 1.83
32 | Cc1cc(-c2ncccc2-c2ccc3ncc(C(=O)NCC45CCCN4CCC5)n3c2)ccc1F [compound 802, 6-(2-(4-Fluoro-3-methylphenyl)pyridin-3-yl)-N-((tetrahydro-1H-pyrrolizin-7a(5H)-yl)methyl)imidazo[1,2-a]pyridine-3-carboxamide] | 5.83
33 | N#Cc1cnc2ccc(-c3cccnc3-c3cccc(Cl)c3)nn12 [compound 949, 6-(2-(3-Chlorophenyl)pyridin-3-yl)imidazo[1,2-b]pyridazine-3-carbonitrile] | 0.375
34 | Cc1cc(-c2ncccc2-c2ccc3ncnc(OCCCN(C)C)c3c2)ccc1F [compound 429, 3-((6-(2-(4-Fluoro-3-methylphenyl)pyridin-3-yl)quinazolin-4-yl)oxy)-N,N-dimethylpropan-1-amine] | 0.384
